Where a name gives a salt, the structure may show the parent alone.
Assays:
Water solubility = type: physicochemical; conditions: for Ws (water solubility): BA as protonated species, 0.1 M HCl, pH 1, hs = highly soluble, not evaluated; for solubility in biological fluids: ionized even at low pH, physiological conditions
Method: Solid compound (BA) was suspended in 5 ml of 0.1 M HCl. […] The flow rate was 150 μl/min. The mass spectrometry acquisition was performed in the multiple reaction monitoring mode using the ESI source in negative ionization. Water solubility was expressed as μmol/liter.
The water solubility was measured for the insoluble protonated species of carboxylated bile acids at a pH 1.

PXR = target: T1, PXR (Homo sapiens, UniProt O75469); assay: PXR ligands competition assay (binding assay)
T1 sequence (O75469 1-434): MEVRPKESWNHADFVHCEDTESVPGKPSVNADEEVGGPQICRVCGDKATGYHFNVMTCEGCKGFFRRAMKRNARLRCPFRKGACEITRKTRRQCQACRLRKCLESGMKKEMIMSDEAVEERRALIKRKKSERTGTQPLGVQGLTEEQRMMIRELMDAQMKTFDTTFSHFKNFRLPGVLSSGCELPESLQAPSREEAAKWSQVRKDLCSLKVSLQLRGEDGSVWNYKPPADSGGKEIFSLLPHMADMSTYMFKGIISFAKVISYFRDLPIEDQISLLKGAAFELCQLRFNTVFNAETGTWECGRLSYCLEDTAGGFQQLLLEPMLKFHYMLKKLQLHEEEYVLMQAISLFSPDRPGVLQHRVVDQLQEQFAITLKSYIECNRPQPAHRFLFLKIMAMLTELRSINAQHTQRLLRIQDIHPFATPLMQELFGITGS
Method: (§1) The selectivity of compounds of the invention was evaluated using assay methods known in the art. Specifically, the following assay methods were used: • FXR and LXR: Coactivator Recruitment (alphascreen); • TGR5: cAMP level on human intestinal cell line (NCI-H716); • PXR: Ligands Competition assay (Binding Assay) • CAR: Coactivator Recruitment (Lanthascreen)

VDR = target: T2, VDR (Homo sapiens, UniProt P11473); assay: NR selectivity assay VDR; conditions: unnamed ref standard 0.005 μM
T2 sequence (P11473 1-427): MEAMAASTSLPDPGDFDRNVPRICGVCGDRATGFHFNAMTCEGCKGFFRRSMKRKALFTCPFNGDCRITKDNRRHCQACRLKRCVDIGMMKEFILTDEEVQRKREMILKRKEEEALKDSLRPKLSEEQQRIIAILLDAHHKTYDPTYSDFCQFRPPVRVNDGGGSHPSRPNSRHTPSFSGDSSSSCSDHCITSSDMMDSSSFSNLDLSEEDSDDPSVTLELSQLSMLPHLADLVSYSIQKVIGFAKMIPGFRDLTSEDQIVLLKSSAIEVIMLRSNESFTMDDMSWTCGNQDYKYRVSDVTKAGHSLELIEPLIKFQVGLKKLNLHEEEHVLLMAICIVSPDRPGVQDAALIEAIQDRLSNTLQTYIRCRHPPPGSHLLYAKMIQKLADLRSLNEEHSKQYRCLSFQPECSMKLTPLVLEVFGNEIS

hTGR5 = target: T3, hTGR5 (Homo sapiens, UniProt Q8TDU6); assay: FRET (cAMP) level in NCI-H716 human intestinal cell line; type: cell-based
T3 sequence (Q8TDU6 1-330): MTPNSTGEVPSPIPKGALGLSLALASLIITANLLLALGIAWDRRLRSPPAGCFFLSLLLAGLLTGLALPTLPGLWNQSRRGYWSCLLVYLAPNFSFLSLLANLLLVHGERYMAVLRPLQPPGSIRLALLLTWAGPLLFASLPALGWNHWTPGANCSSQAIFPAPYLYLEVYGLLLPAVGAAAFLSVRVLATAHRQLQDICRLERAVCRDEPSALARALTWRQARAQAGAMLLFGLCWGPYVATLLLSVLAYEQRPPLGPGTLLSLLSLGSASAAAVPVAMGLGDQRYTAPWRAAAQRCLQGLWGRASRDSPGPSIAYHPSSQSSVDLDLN
Method: EC50 values were determined by probit analysis.
as §1

[1] = HepG2 cell cytotoxicity, ATP decrease; type: cell-based; conditions: human
Method: (§2) Compounds of the invention were evaluated for cytotoxicity using standard methods known in the art. Specifically, cytotoxicity was evaluated using HEPG2 cells and monitoring ATP decrease and determining the EC50 value. […]

HepG2 cell = HepG2 cell cytotoxicity, ATP decrease; type: cell-based; conditions: human
Method: as §2

bovine serum albumin = target: T4, bovine serum albumin (Bos taurus, UniProt P02769); assay: Albumin binding by equilibrium dialysis; type: in vitro ADME; conditions: 100 μM BA in 5% bovine serum albumin-saline, pH 7.2
T4 construct: dissolved at a concentration of 100 μM in 5% bovine serum albumin-saline solution (pH 7.2); from tissue; host or cells: bovine serum (only from the protein's name)
Method: The extent of albumin binding was evaluated by equilibrium dialysis at a fixed BA-albumin ratio. BA was dissolved at a concentration of 100 μM in 5% bovine serum albumin-saline solution (pH 7.2) and left to stand for 24 h at 25° C. Two milliliters of this solution was dialyzed in cellulose sacs having a molecular weight cut-off of 12-14,000 against 25 ml of saline solution. The system was equilibrated by mechanical gently shaking for 72 h at 25° C. BA concentrations of the dialyzed solution (corresponding to the free unbound fraction) and of the starting solution were determined with HPLC-ESI-MS/MS in the same conditions of the previous analysis. The percent of albumin binding was calculate from the initial BA concentration and from the unbound concentration in the dialyzed fraction. All these compounds never less present an albumin binding compatible with a relatively fast hepatic uptake, similarly to natural occurring BA. Accordingly different kinetics (slower) of the liver uptake is expected.

PPARδ = target: T5, PPARδ (Homo sapiens, UniProt Q03181); assay: NR selectivity assay PPARδ; conditions: unnamed ref standard 0.004 μM
T5 sequence (Q03181 1-441): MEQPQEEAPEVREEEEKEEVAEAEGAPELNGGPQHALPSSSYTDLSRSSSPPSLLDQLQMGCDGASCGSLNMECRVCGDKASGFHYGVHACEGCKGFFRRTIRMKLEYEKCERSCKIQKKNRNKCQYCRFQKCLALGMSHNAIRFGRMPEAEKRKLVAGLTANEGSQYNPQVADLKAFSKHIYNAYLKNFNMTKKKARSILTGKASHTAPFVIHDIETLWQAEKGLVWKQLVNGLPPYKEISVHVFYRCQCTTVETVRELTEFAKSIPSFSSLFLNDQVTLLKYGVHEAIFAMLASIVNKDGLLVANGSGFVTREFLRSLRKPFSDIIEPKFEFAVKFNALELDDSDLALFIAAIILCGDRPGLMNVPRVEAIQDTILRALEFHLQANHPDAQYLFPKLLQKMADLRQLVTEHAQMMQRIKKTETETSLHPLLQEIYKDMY

Intestinal Bacteria = assay: In vitro metabolic stability in human stool culture; conditions: human stool culture
Method: Homogenized fresh human stools (500 mg) were transferred into sterile vials to which 5 mL of sterilized chopped meat-glucose medium (Scott Lab., Fiskville, R.I.) was added. BA were then added at a final concentration of 0.05 mM. Vials were incubated at 37° C.; then, at 0, 1, 2, 4, 8 and 24 h after the addition of the BA, the reaction was stopped with 150 μL of 30% KOH. The samples were centrifuged at 3500 rpm for 10 min; from the supernatant the BA were isolated by C-18 solid-phase extraction and analyzed by TLC and HPLC-ES-MS/MS.
Thin-layer chromatography (TLC), utilizing silica gel 0.25 mm thickness plates (Merck, Darmstat, Germany), was employed as the first screening test. The solvent system used for the separation of conjugated BA was composed of propionic acid/isoamyl acetate/water/N-propanol (3:4:1:2, v/v/v/v; solvent I), and that of the unconjugated BA was acetic acid/carbon tetrachloride/isopropyl ether/isoamyl acetate/water/N-propanol/benzene (1:4:6:8:2:2, v/v/v/v/v/v; solvent II).

T4 sequence (P02769 25-607): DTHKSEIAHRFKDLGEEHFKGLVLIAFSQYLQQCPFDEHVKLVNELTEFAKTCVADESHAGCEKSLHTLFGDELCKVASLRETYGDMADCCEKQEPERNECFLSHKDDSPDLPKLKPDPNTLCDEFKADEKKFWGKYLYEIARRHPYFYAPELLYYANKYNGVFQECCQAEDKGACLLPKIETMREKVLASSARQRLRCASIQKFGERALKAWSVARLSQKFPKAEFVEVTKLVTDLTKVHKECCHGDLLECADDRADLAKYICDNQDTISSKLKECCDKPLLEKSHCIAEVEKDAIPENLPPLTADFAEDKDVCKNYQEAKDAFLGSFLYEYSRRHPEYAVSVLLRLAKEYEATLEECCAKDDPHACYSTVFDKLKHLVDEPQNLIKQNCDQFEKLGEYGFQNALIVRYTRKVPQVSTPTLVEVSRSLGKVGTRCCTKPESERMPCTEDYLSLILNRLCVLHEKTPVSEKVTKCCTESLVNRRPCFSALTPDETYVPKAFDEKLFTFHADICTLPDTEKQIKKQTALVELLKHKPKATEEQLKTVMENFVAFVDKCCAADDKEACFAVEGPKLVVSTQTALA

SMILES | Ws (water solubility) (Water solubility) | solubility in biological fluids (Water solubility) | EC50 (PXR) [µM] | VDR EC50 (VDR) | EC50 (hTGR5) [µM] | EC50 [1] [µM] | EC50 (HepG2 cell) [µM] | Albumin Binding (bovine serum albumin) [%] | PPARδ EC50 (PPARδ) | side chain stability (Intestinal Bacteria)
CCC1C(O)C2C3CCC(C(C)CC(C)OS(=O)(=O)O)C3(C)CCC2C2(C)CCC(O)CC12 [Compound 2A, 3α,7α,23-trihydroxy-6α-ethyl-23(S)-methyl-24-nor-5β-cholan-23-sulfate Sodium Salt] | hs | always soluble in all biological fluids | 21 | No | 1.6 ± 0.3 | > 1000 | > 1000 | 97 | No | quite stable
CC[C@H]1[C@@H](O)[C@@H]2[C@H](C[C@H](O)[C@]3(C)[C@@H]([C@H](C)CCCS(=O)(=O)[O-])CC[C@@H]23)[C@@]2(C)CC[C@@H](O)C[C@@H]12.[Na+] [Compound 3A, 3α,7α,12α-trihydroxy-6α-ethyl-5β-cholan-24-sulfonate Sodium Salt] | hs | always soluble in all biological fluids | 150 | No | 0.7 ± 0.2 | > 1000 | > 1000 | 81 | No | very stable

Source: patent US8796249B2, “TGR5 modulators and methods of use thereof” (Intercept Pharmaceuticals, Inc., priority 2008, dated 2014)
